Measurements from patent US11433069B2, “Methods of use and pharmaceutical combinations comprising histone deacetylase inhibitors and JAK1/2 inhibitors” (University of Modena and Reggio Emilia, priority 2017, dated 2022).

Experiments:
[1] = system: 12 hematological cancer cell lines; experiment: MTT cell viability, single agents; format: cell-based; details: panel of 12 lymphoid malignant cell lines, 24-48 hours, range over cell lines
Method: Momelotinib induces dose and time dependent manner growth inhibition in a panel of twelve lymphoid malignant cell lines. Multiple myeloma cells (U266, RPM18266), B-cell lymphoma cells (RL, WSU-NHL, Karpas-422), chronic lymphocytic leukemia cells (MEC-1), mantle cell lymphoma cells (Granta-519, Jeko-1), cutaneous T cell lymphoma cells (Hut-78), anaplastic large cell lymphoma cells (Karpas-299), and Hodgkin lymphoma cells (L-1236, L-540) were treated with a serial dosage of momelotinib (1-10 μM) for 24-48 hours.
Momelotinib and Compound A alone and in combination were tested in 12 hematological cancer cell lines: B-cell lymphomas (WSU-NHL, RL, Karpas-422), mantle cell lymphoma (Granta-519, Jeko-1), cutaneous T cell lymphoma (Hut-78), anaplastic large cell lymphoma (Karpas-299), Hodgkin lymphoma (L-1236, L-540), multiple myeloma (U266, RPM18266) and chronic lymphocytic leukemia (MEC-1). With the exception of GRANTA-519, hematological cancer cell lines were cultured in RPMI-1640 supplemented with 10% fetal bovine serum (FBS), 2 mM glutamine, and 100 U/mL penicillin and streptomycin. For Granta-519 cells, DMEM was used in place of RPMI-1640.
Cell viability was evaluated by MTT colorimetric assay following the manufacturer's instructions. […]

α-tubulin = experiment: Western blot of acetylation of α-tubulin; format: cell-based; details: lymphoma cells; extent not further modified by momelotinib
Method: Lymphoma cell lines treated with 1 μM of momelotinib and 4 μM of citarinostat alone and in combination. […] Whole-cell lysates were subjected to western blotting using the indicated Abs. Tubulin was used to normalize protein loading. […] Whole-cell lysates were subjected to western blotting using the indicated Abs. Tubulin was used to normalize protein loading.
The combination treatment with momelotinib and Compound A leads JAK2/STAT3 pathway inactivation.

IC50 [1] [µM]	Structure (SMILES)	acetylation of α-tubulin (α-tubulin)
1.51 to 60	O=C(CCCCCCNC(=O)c1cnc(N(c2ccccc2)c2ccccc2Cl)nc1)NO [Compound A, 2-((2-chlorophenyl)(phenyl)amino)-N-(7-(hydroxyamino)-7-oxoheptyl)pyrimidine-5-carboxamide]	induced the acetylation of α-tubulin
1.8 to 9.6	N#CCNC(=O)c1ccc(-c2ccnc(Nc3ccc(N4CCOCC4)cc3)n2)cc1 [Momelotinib, momelotinib, reference compound]	–
